Assay type in all cases: functional, cell-based
In assay [1] the test system is A-375. Kind of assay: In vitro antitumor activity against A375 (melanoma) human tumor cell lines.
Assay [2] has as its system A549. Kind of assay: In vitro antitumor activity against A549 (lung) human tumor cell lines.
Assay [3] deals with MDA-MB-231. The assay can be described thus: In vitro antitumor activity against MB231 (breast) human tumor cell lines.
Assay [4] relates to SW480. The assay can be described thus: In vitro antitumor activity against SW480 (colon) human tumor cell lines.

Experimental findings from ChEMBL document CHEMBL1129024, “Design, synthesis, and antitumor activity of bicyclic and isomeric analogues of illudin M” (Bioorg Med Chem Lett, 1996) are described below.

SMILES strings stand for the structures. pIC50: −log10 of the molar value. Some results are limits rather than exact numbers.

On to `C/C=C1\C=C(C)C2(CC2)C(C)(O)C1=O` (stereo not given), for which the pIC50 was 8.40 in assay [1], 6.82 in assay [2], 6.96 in assay [3] and 6.92 in assay [4].

With `CC1=C/C(=C\C#CCCO)C(=O)C(C)(O)C12CC2` (stereo not given), the pIC50 is 5.70 in assay [1], 5.52 in assay [2], 5.70 in assay [3] and 5.40 in assay [4].

For `CC1=C/C(=C\c2cccs2)C(=O)C(C)(O)C12CC2` (stereo not given), the negative-log IC50 (pIC50) in assay [1], in assay [2], in assay [3] and in assay [4] was less than 5.00 throughout.

Turning to `C=C/C=C1\C=C(C)C2(CC2)C(C)(O)C1=O` (stereo not given), the pIC50 in assay [1] was 7.74; in assay [2] it was 8.70; in assay [3] it was 7.55; in assay [4], 6.74.

Turning to `C=C1C2=C(CC(C)(C)C2=O)C(=O)C(C)(O)C12CC2` (stereo not given), the negative logarithm of the IC50 (pIC50) in assay [1] is 7.49; in assay [2], 6.60; in assay [3], 5.70; in assay [4], 7.22.

Consider `CC1=C/C(=C\C(C)C)C(=O)C(C)(O)C12CC2` (stereo not given), for which the pIC50 is 6.89 in assay [1], 6.96 in assay [2], 6.52 in assay [3] and 7.52 in assay [4].

In the case of `CC1=C/C(=C\Cl)C(=O)C(C)(O)C12CC2` (stereo not given), the negative logarithm of the IC50 (pIC50) is 6.00 in assay [1], 6.70 in assay [2], 6.52 in assay [3] and 7.52 in assay [4].

Regarding `CC1=C/C(=C\c2ccccc2)C(=O)C(C)(O)C12CC2` (stereo not given), the negative-log IC50 (pIC50) in assay [1] is less than 5.00; in assay [2] it was 5.82; in assay [3], 5.40; in assay [4] it was 5.60.

With `CC1=C2C(=O)C(C)(C)C=C2C(=O)[C@](C)(O)C12CC2` [DEHYDROILLUDIN M], the negative-log IC50 (pIC50) in assay [1] was 6.26; in assay [2], 6.70; in assay [3], 6.35; in assay [4], 6.52.

With `COc1cccc2c1C(=O)c1c(O)c3c(c(O)c1C2=O)C[C@@](O)(C(=O)CO)C[C@@H]3O[C@H]1C[C@H](N)[C@H](O)[C@H](C)O1` [DOXORUBICIN], the negative logarithm of the IC50 (pIC50) is 7.15 in assay [1], 6.92 in assay [2], 6.82 in assay [3] and 7.22 in assay [4].

One may read the pIC50 as −log10 of the IC50, conventionally taken in molar units. Read a low pIC50 as a high IC50.
